The results in this text go back to patent publication US12448359B2, “Compounds with immunomodulatory activity and therapeutic uses thereof” (Purdue Research Foundation, priority 2020, dated 2025).

pIC50: −log10 of the molar value.

The target in the assay is PD-1/PD-L1 interaction (Homo sapiens (Human), UniProt Q9NZQ7). The experiment in a line: PD1/PD-L1 HTRF assay (Cisbio kit), inhibition of PD-1/PD-L1 interaction. The format is binding. As to conditions: for pIC50 / IC50 value: HTRF, inhibition of PD-1/PD-L1 interaction, 4PL fit; for inhibition to PD-1/PD-L1 interaction (in words): HTRF assay. How it is done:
Briefly, 2 μL of the compound, 4 μL from a 25 nM Tagl-PD-L1 protein solution and 4 μL from a 250 nM Tag2-PD1 protein were added into a Cisbio's HTRF 96-well low volume white plate. Then, the plate was incubated for 15 minutes at room temperature. Next, 10 μL from pre-mixed anti-tag detection reagents (5 μL from 1X anti-Tagl-Eu^3+ and 5 μL from 1X anti-Tag2-XL665) were added and the sealed plate was incubated for 2 hours at room temperature. Finally, the plate sealer was removed, and measurements were taken using a HTRF® compatible reader. This protocol used 12 different concentrations of each compound where the maximum and minimum assay concentrations are 10,000 nM and 0.001 nM respectively.
To calculate ΔF/ΔFmax, first the HTRF ratio is calculated as follows;
A multiplication factor of 10000 factor was used to not deal with decimal values that improves data accuracy during calculation. The AR ratio indicating “specific signal” of the compound disrupting the PD-1/PD-L1 interaction was calculated by subtracting background HTRF ratio (negative DMSO control in our work) from each compound (sample) HTRF ratio as follows; ΔR=HTRF ratio (sample)−HTRF ratio (background)
Next, data normalization was done to minimize variation in values on different days, different plate reader instruments, or if the assay was done by different individuals. The normalization was done with respect to the background HTRF ratio and was calculated as follows;
Finally, the ΔF/ΔFmax ratio was calculated to enable comparison of values between multiple experiments.
[formula] wherein ΔF max is taken as the ΔF of the positive DMSO control in the assay.
The IC50 value for PD-1/PD-L1 inhibition was determined by analyzing the log of the concentration—response curves to fit a sigmoid curve with four-parameter logistic (4PL) regression using the GraphPad Prism Software version 8.3.0 for Windows, GraphPad Software, La Jolla California USA, www.graphpad.com. Following equation defines the regression curve.
[formula] wherein X=Log of concentration, Y=Response ΔF/ΔFmax, Top and Bottom=Plateaus in same units as Y, LogIC50=Same log units as X, HillSlope=Slope factor or Hill Slope, Unitless. Using the above equation, LogIC50, is calculated to obtain the IC50 value for each compound. The HTRF_IC50_Data.xlsx data file with all replicates is provided as a Supporting File for use in GraphPad Prism Software to calculate IC50 values.
On the technique in general: Time-resolved FRET reads energy transfer from a long-lived donor to a nearby acceptor.

Chain of PD-1/PD-L1 interaction (Q9NZQ7 19-238): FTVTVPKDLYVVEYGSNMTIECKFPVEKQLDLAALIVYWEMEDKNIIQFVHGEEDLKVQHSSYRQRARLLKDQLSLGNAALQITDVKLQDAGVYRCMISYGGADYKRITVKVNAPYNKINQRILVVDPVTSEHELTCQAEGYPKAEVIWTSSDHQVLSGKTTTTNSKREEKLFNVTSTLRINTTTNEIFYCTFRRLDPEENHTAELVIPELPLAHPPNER

Take `COc1cc(OCc2cccc(-c3ccc4c(c3)OCCO4)c2C)cc(OC)c1CN[C@H](CO)C(=O)O` [Compound 4b]: the pIC50 was 6.47.
Take `COc1cc(OCc2cccc(-c3ccccc3)c2C)cc(OC)c1CNC(CC(F)(F)F)c1ccccc1` (stereo not shown) [Compound 4c, N-(2,6-dimethoxy-4-((2-methyl-[1,1′-biphenyl]-3-yl)methoxy)benzyl)-3,3,3-trifluoro-1-phenylpropan-1-amine]: the “inhibition to PD-1/PD-L1 interaction (in words)” value is “no/poor inhibition” and the IC50 value entry is on record as “no inhibition”.
For `C#C[C@]1(O)CC[C@H]2[C@@H]3[C@H](C)CC4=CC(=O)CCC4[C@H]3CC[C@@]21C` (stereo partly drawn) [Compound 4d, (7R,8R,9S,13S,14S,17R)-17-ethynyl-17-hydroxy-7,13-dimethyl-1,2,6,7,8,9,10,11,12,13,14,15,16,17-tetradecahydro-3H-cyclopenta[a]phenanthren-3-one] the same measures were “no/poor inhibition” and “no inhibition”.
Turning to `COc1cc(OCc2cccc(-c3ccccc3)c2C)cc(OC)c1CN1CCC[C@H](C(=O)O)C1` [Compound 4e, (S)-1-(2,6-dimethoxy-4-((2-methyl-[1,1′-biphenyl]-3-yl)methoxy)benzyl)piperidine-3-carboxylic acid], the “inhibition to PD-1/PD-L1 interaction (in words)” value is “no/poor inhibition” and the pIC50 is 5.90.

In general, pIC50 refers to the negative decadic logarithm of the IC50, by convention in mol/L.
